Experimental data reported in PubChem BioAssay (NCI).
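These data come from cells grown in 96-well plates and exposed to compound for 48 hours at five concentrations. At the TGI there is no net growth.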

System: M14 melanoma
Experiment: DTP human tumour cell line panel, 48 h

Structure (SMILES) | TGI [µM]
Nc1ncnc2c1ncn2C(=O)NC12CC3CC(CC(C3)C1)C2 | > 100
CSc1c(C(=O)Nc2ccc(C)cc2)c(N)[nH]c(=O)c1C#N | > 100
C(=Nc1ccc(-c2nc3ccccc3s2)cc1)c1ccco1 | > 100
CC(=O)/C(=C/n1c(=S)sc2ccccc21)C(=O)Nc1ccccc1C | > 100
O=C1CC(c2ccc([N+](=O)[O-])cc2)C2(C(=O)NC(=S)NC2=O)C(c2ccc([N+](=O)[O-])cc2)C1 (stereo not drawn) | 45.7
N#CSCc1cccc(Nc2cc(=O)[nH]c(=O)[nH]2)c1 | > 100

System: HCT-15 colon
Experiment: DTP human tumour cell line panel, 48 h

Structure (SMILES) | TGI [µM]
Cc1nc2cc(C(F)(F)F)ccc2[nH]c1=O | > 100
Nc1ncnc2c1ncn2C(=O)NC12CC3CC(CC(C3)C1)C2 | > 100
CSc1c(C(=O)Nc2ccc(C)cc2)c(N)[nH]c(=O)c1C#N | > 100
C(=Nc1ccc(-c2nc3ccccc3s2)cc1)c1ccco1 | > 100
CC(=O)/C(=C/n1c(=S)sc2ccccc21)C(=O)Nc1ccccc1C | > 100
O=C1CC(c2ccc([N+](=O)[O-])cc2)C2(C(=O)NC(=S)NC2=O)C(c2ccc([N+](=O)[O-])cc2)C1 (stereo not drawn) | 58
N#CSCc1cccc(Nc2cc(=O)[nH]c(=O)[nH]2)c1 | > 100

System: HCC-2998 colon
Experiment: DTP human tumour cell line panel, 48 h

Structure (SMILES) | TGI [µM]
Cc1nc2cc(C(F)(F)F)ccc2[nH]c1=O | > 100
Nc1ncnc2c1ncn2C(=O)NC12CC3CC(CC(C3)C1)C2 | > 100
CSc1c(C(=O)Nc2ccc(C)cc2)c(N)[nH]c(=O)c1C#N | > 100
C(=Nc1ccc(-c2nc3ccccc3s2)cc1)c1ccco1 | > 100
CC(=O)/C(=C/n1c(=S)sc2ccccc21)C(=O)Nc1ccccc1C | > 100
O=C1CC(c2ccc([N+](=O)[O-])cc2)C2(C(=O)NC(=S)NC2=O)C(c2ccc([N+](=O)[O-])cc2)C1 (stereo not drawn) | 49.8
N#CSCc1cccc(Nc2cc(=O)[nH]c(=O)[nH]2)c1 | > 100

System: OVCAR-8 ovarian
Experiment: DTP human tumour cell line panel, 48 h

Structure (SMILES) | TGI [µM]
Cc1nc2cc(C(F)(F)F)ccc2[nH]c1=O | > 100
Nc1ncnc2c1ncn2C(=O)NC12CC3CC(CC(C3)C1)C2 | > 100
CSc1c(C(=O)Nc2ccc(C)cc2)c(N)[nH]c(=O)c1C#N | > 100
C(=Nc1ccc(-c2nc3ccccc3s2)cc1)c1ccco1 | > 100
CC(=O)/C(=C/n1c(=S)sc2ccccc21)C(=O)Nc1ccccc1C | > 100
O=C1CC(c2ccc([N+](=O)[O-])cc2)C2(C(=O)NC(=S)NC2=O)C(c2ccc([N+](=O)[O-])cc2)C1 (stereo not drawn) | 45.1
N#CSCc1cccc(Nc2cc(=O)[nH]c(=O)[nH]2)c1 | > 100

System: MOLT-4 leukemia
Experiment: DTP human tumour cell line panel, 48 h

Structure (SMILES) | TGI [µM]
Cc1nc2cc(C(F)(F)F)ccc2[nH]c1=O | > 100
Nc1ncnc2c1ncn2C(=O)NC12CC3CC(CC(C3)C1)C2 | > 100
CSc1c(C(=O)Nc2ccc(C)cc2)c(N)[nH]c(=O)c1C#N | > 100
C(=Nc1ccc(-c2nc3ccccc3s2)cc1)c1ccco1 | > 100
CC(=O)/C(=C/n1c(=S)sc2ccccc21)C(=O)Nc1ccccc1C | > 100
O=C1CC(c2ccc([N+](=O)[O-])cc2)C2(C(=O)NC(=S)NC2=O)C(c2ccc([N+](=O)[O-])cc2)C1 (stereo not drawn) | > 100

System: TK-10 renal
Experiment: DTP human tumour cell line panel, 48 h

Structure (SMILES) | TGI [µM]
Cc1nc2cc(C(F)(F)F)ccc2[nH]c1=O | > 100
Nc1ncnc2c1ncn2C(=O)NC12CC3CC(CC(C3)C1)C2 | > 100
CSc1c(C(=O)Nc2ccc(C)cc2)c(N)[nH]c(=O)c1C#N | > 100
C(=Nc1ccc(-c2nc3ccccc3s2)cc1)c1ccco1 | 8.51
CC(=O)/C(=C/n1c(=S)sc2ccccc21)C(=O)Nc1ccccc1C | > 100
O=C1CC(c2ccc([N+](=O)[O-])cc2)C2(C(=O)NC(=S)NC2=O)C(c2ccc([N+](=O)[O-])cc2)C1 (stereo not drawn) | 46.7
N#CSCc1cccc(Nc2cc(=O)[nH]c(=O)[nH]2)c1 | > 100

System: K-562 leukemia
Experiment: DTP human tumour cell line panel, 48 h

Structure (SMILES) | TGI [µM]
Cc1nc2cc(C(F)(F)F)ccc2[nH]c1=O | > 100
Nc1ncnc2c1ncn2C(=O)NC12CC3CC(CC(C3)C1)C2 | > 100
CSc1c(C(=O)Nc2ccc(C)cc2)c(N)[nH]c(=O)c1C#N | > 100
C(=Nc1ccc(-c2nc3ccccc3s2)cc1)c1ccco1 | > 100
O=C1CC(c2ccc([N+](=O)[O-])cc2)C2(C(=O)NC(=S)NC2=O)C(c2ccc([N+](=O)[O-])cc2)C1 (stereo not drawn) | > 100
N#CSCc1cccc(Nc2cc(=O)[nH]c(=O)[nH]2)c1 | > 100

System: HOP-62 NSCLC
Experiment: DTP human tumour cell line panel, 48 h

Structure (SMILES) | TGI [µM]
Cc1nc2cc(C(F)(F)F)ccc2[nH]c1=O | > 100
Nc1ncnc2c1ncn2C(=O)NC12CC3CC(CC(C3)C1)C2 | > 100
